# Where a name gives a salt, the structure may show the parent alone. Read-outs that look alike come from different tables or passages of the source.
# System: Dengue-2 (Strain New Guinea C)
# Assay: Viral yield assay against Dengue-2 in Vero cells
# Type: cell-based, Dengue virus
# Conditions: Dengue virus
# Outline: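 Infect Vero cells with virus (MOI 0.1), add compound or DMSO, incubate at 37° C, collect progeny at 48 hours post infection, then titrate on Vero cells to obtain EC50.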
# [1] = Vero cells, MOI 0.1, harvested 48 hours post infection, read-out: Activity (EC50 class) against Dengue-2 Virus in Vero cells
# [2] = DENV2, viral yield assay, Vero cells, MOI 0.1, 48 hours post infection, read-out: Activity (EC50 in μM) DENV-2
# [3] = Vero, 48 h, read-out: Activity (EC50 class) against Dengue-2 Virus in Vero cells
Compound,EC50 [1] [µM],EC50 [2] [µM],also measured
"COCc1cc(C)nc2sc(C(=O)Nc3ccc4c(c3)OCO4)c(N)c12 [Compound 250, 3-Amino-4-methoxymethyl-6-methyl-thieno[2,3-b]pyridine-2-carboxylic acid benzo[1,3]dioxol-5-ylamide]",> 25,–,–
"CCOc1cccc(NC(=O)c2sc3nc(-c4ccc(F)cc4)ccc3c2N)c1 [Compound 611, 3-amino-N-(3-ethoxyphenyl)-6-(4-fluorophenyl)thieno[2,3-b]pyridine-2-carboxamide]",–,< 5,–
"CN1CCc2nc3sc(C(=O)Nc4ccc(F)cc4)c(N)c3cc2C1 [Compound 29, 3-Amino-6-methyl-5,6,7,8-tetrahydro-thieno[2,3-b][1,6]naphthyridine-2-carboxylic acid (4-fluoro-phenyl)-amide]",< 5,–,–
"CCN(CC)c1ccc(NC(=O)c2sc3nc4c(cc3c2N)CN(C)CC4)cc1 [Compound 276, 3-Amino-6-methyl-5,6,7,8-tetrahydro-thieno[2,3-b][1,6]naphthyridine-2-carboxylic acid (4-diethylamino-phenyl)-amide]",> 25,–,–
"Nc1c(C(=O)Nc2nnc(-c3ccccc3)s2)sc2nc3c(cc12)CCNCC3 [Compound 115, 3-Amino-6,7,8,9-tetrahydro-5H-1-thia-7,10-diaza-cyclohepta[f]indene-2-carboxylic acid (5-phenyl-[1,3,4]thiadiazol-2-yl)-amide hydrochloride]",5 to 25,–,–
"Nc1c(C(=O)Nc2cccc(C(F)(F)F)c2)sc2nc(-c3ccc(F)cc3)ccc12 [Compound 456, 3-amino-6-(4-fluorophenyl)-N-[3-(trifluoromethyl)phenyl]thieno[2,3-b] pyridine-2-carboxamide]",–,< 5,–
"COc1cccc(-c2ccc3c(N)c(C(=O)Nc4ccc(F)c(Cl)c4)sc3n2)c1 [Compound 526, 3-amino-N-(3-chloro-4-fluoro-phenyl)-6-(3-methoxyphenyl)thieno[2,3-b] pyridine-2-carboxamide]",–,< 5,–
"Nc1c(C(=O)Nc2ccc(F)c(Cl)c2)sc2nc(-c3ccc(F)cc3)ccc12 [Compound 613, 3-amino-N-(3-chloro-4-fluoro-phenyl)-6-(4-fluorophenyl)thieno[2,3-b]pyridine-2-carboxamide]",–,< 5,–
"COC(=O)c1ccccc1NC(=O)c1sc2nc(N)c(C#N)cc2c1N [Compound 133, 2-[(3,6-Diamino-5-cyano-thieno[2,3-b]pyridine-2-carbonyl)-amino]-benzoic acid methyl ester]",> 25,–,–
"COC(=O)c1cc(OC)c(OC)cc1NC(=O)c1sc2nc3c(cc2c1N)CN(C)CC3 [Compound 263, 2-[(3-Amino-6-methyl-5,6,7,8-tetrahydro-thieno[2,3-b][1,6]naphthyridine-2-carbonyl)-amino]-4,5-dimethoxy-benzoic acid methyl ester]",> 25,–,–
"COc1cccc(-c2ccc3c(N)c(C(=O)Nc4ccc(C)cc4)sc3n2)c1 [Compound 553, 3-amino-6-(3-methoxyphenyl)-N-(p-tolyl)thieno[2,3-b]pyridine-2-carboxamide]",–,< 5,–
"Nc1c(C(=O)Nc2ccc3c(c2)OCO3)sc2nc(-c3ccc(F)cc3F)ccc12 [Compound 655, 3-amino-N-(1,3-benzodioxol-5-yl)-6-(2,4-difluorophenyl)thieno[2,3-b]pyridine-2-carboxamide]",–,< 5,–
"COc1cccc(-c2ccc3c(N)c(C(=O)Nc4ccc(F)cc4C)sc3n2)c1 [Compound 551, 3-amino-N-(4-fluoro-2-methyl-phenyl)-6-(3-methoxyphenyl)thieno[2,3-b] pyridine-2-carboxamide]",–,< 5,–
"Nc1c(C(=O)Nc2ccc(S(N)(=O)=O)cc2)sc2nc3c(cc12)CCCCC3 [Compound 80, 3-Amino-6,7,8,9-tetrahydro-5H-1-thia-10-aza-cyclohepta[f]indene-2-carboxylic acid (4-sulfamoyl-phenyl)-amide]",–,–,EC50 [3]: 5 to 25 µM
"COCc1cc(C)nc2sc(C(=O)N(c3ccccc3)c3ccccc3)c(N)c12 [Compound 140, 3-Amino-4-methoxymethyl-6-methyl-thieno[2,3-b]pyridine-2-carboxylic acid diphenylamide]",–,–,EC50 [3]: > 25 µM
"Nc1c(C(=O)Nc2ccccc2)sc2nc3c(cc12)CCC3 [Compound 173, 3-Amino-6,7-dihydro-5H-cyclopenta[b]thieno[3,2-e]pyridine-2-carboxylic acid phenylamide]",> 25,–,–
"Cc1ccc2c(n1)sc1c(=O)n(-c3cccc(Br)c3)nnc12 [Compound 479, 3-(3-bromophenyl)-7-methylpyrido[3′,2′:4,5]thieno[3,2-d] [1,2,3]triazin-4(3H)-one]",–,< 5,–
"Cc1cccc(NC(=O)c2sc3nc4c(cc3c2N)CCC4)c1C [Compound 179, 3-Amino-6,7-dihydro-5H-cyclopenta[b]thieno[3,2-e]pyridine-2-carboxylic acid (2,3-dimethyl-phenyl)-amide]",–,–,EC50 [3]: > 25 µM
"Cc1ccc(NC(=O)c2sc3nc(C)cc(C(F)(F)F)c3c2N)cc1 [Compound 165, 3-Amino-6-methyl-4-trifluoromethyl-thieno[2,3-b]pyridine-2-carboxylic acid p-tolylamide]",> 25,–,–

Compound,EC50 [1] [µM],EC50 [2] [µM],also measured
"CCc1nnc(NC(=O)c2sc3nc4c(cc3c2N)CN(C(C)C)CC4)s1 [Compound 272, 3-Amino-6-isopropyl-5,6,7,8-tetrahydro-thieno[2,3-b][1,6]naphthyridine-2-carboxylic acid (5-ethyl-[1,3,4]thiadiazol-2-yl)-amide]",> 25,–,–
"O=C(Nc1ccccc1)c1sc2ncccc2c1OCc1ccc(Cl)c(Cl)c1 [Compound 379, 3-[(3,4-dichlorophenyl)methoxy]-N-phenyl-thieno[2,3-b]pyridine-2-carboxamide]",–,< 5,–
"CN1CCc2nc3sc(C(=O)Nc4ccc(N(C)C)cc4)c(N)c3cc2C1 [Compound 20, 3-Amino-6-methyl-5,6,7,8-tetrahydro-thieno[2,3-b][1,6]naphthyridine-2-carboxylic acid (4-dimethylamino-phenyl)-amide]",< 5,–,–
"Cc1ccc(C)c(NC(=O)c2sc3nc(-c4ccc5c(c4)OCO5)ccc3c2N)c1 [Compound 588, 3-amino-6-(1,3-benzodioxol-5-yl)-N-(2,5-dimethylphenyl)thieno[2,3-b]pyridine-2-carboxamide]",–,< 5,–
"Cc1ccc2c(n1)sc1c(=O)[nH]c(C)nc12 [Compound 154, 2,7-Dimethyl-3H-pyrido[3′,2′:4,5]thieno[3,2-d]pyrimidin-4-one]",> 25,–,–
"Nc1c(C(=O)Nc2nccs2)sc2nc3c(cc12)CCCCC3 [Compound 366, 3-amino-N-(thiazol-2-yl)-6,7,8,9-tetrahydro-5H-cyclohepta [b]thieno[3,2-e]pyridine-2-carboxamide]",–,< 5,–
"CCc1nnc(NC(=O)c2sc3nc(C)cc(COC)c3c2N)s1 [Compound 137, 3-Amino-4-methoxymethyl-6-methyl-thieno[2,3-b]pyridine-2-carboxylic acid (5-ethyl-[1,3,4]thiadiazol-2-yl)-amide]",> 25,–,–
"COc1cccc(-c2ccc3c(N)c(C(=O)Nc4cc(OC)ccc4Cl)sc3n2)c1 [Compound 548, 3-amino-N-(2-chloro-5-methoxy-phenyl)-6-(3-methoxyphenyl)thieno[2,3-b] pyridine-2-carboxamide]",–,< 5,–
"CC(=O)c1ccc(NC(=O)c2sc3nc4c(cc3c2N)CN(C)CC4)cc1 [Compound 43, 3-Amino-6-methyl-5,6,7,8-tetrahydro-thieno[2,3-b][1,6]naphthyridine-2-carboxylic acid (4-acetyl-phenyl)-amide]",< 5,–,–
"COc1cccc(-c2ccc3c(N)c(C(=O)Nc4ccc(Br)cc4F)sc3n2)c1 [Compound 556, 3-amino-N-(4-bromo-2-fluoro-phenyl)-6-(3-methoxyphenyl)thieno[2,3-b]pyridine-2-carboxamide]",–,< 5,–
"Cc1cc(NC(=O)c2sc3nc(C)c(C)c(C)c3c2N)no1 [Compound 255, 3-Amino-4,5,6-trimethyl-thieno[2,3-b]pyridine-2-carboxylic acid (5-methyl-isoxazol-3-yl)-amide]",> 25,–,–
"Cc1cccc(NC(=O)c2sc3nc(N)c(C#N)c(-c4ccc(C(C)C)cc4)c3c2N)c1C [Compound 143, 3,6-Diamino-5-cyano-4-(4-isopropyl-phenyl)-thieno[2,3-b]pyridine-2-carboxylic acid (2,3-dimethyl-phenyl)-amide]",> 25,–,–
"CC(=O)Nc1nc2sc(C(=O)Nc3ccc(Br)cc3)c(N)c2c(-c2ccco2)c1C#N [Compound 324, 6-acetamido-3-amino-N-(4-bromophenyl)-5-cyano-4-(2-furyl)thieno[2,3-b]pyridine-2-carboxamide]",–,< 5,–
"CC1(C)CC(=O)c2cc3c(N)c(C(=O)Nc4ccc([N+](=O)[O-])cc4)sc3nc2C1 [Compound 214, 3-Amino-7,7-dimethyl-5-oxo-5,6,7,8-tetrahydro-thieno[2,3-b]quinoline-2-carboxylic acid (4-nitro-phenyl)-amide]",> 25,–,–
"Cc1cc(C)c2c(N)c(C(=O)Nc3ccccc3F)sc2n1 [Compound 178, 3-Amino-4,6-dimethyl-thieno[2,3-b]pyridine-2-carboxylic acid (2-fluoro-phenyl)-amide]",–,–,EC50 [3]: > 25 µM
"CC1(C)Cc2c(c(N3CCOCC3)nc3sc4c(=O)n(-c5ccccc5)cnc4c23)CO1 [Compound 233, 2,2-Dimethyl-5-morpholin-4-yl-9-phenyl-1,4-dihydro-2H,9H-3-oxa-7-thia-6,9,11-triaza-benzo[c]fluoren-8-one]",> 25,–,–
"Cc1cc(C)c2c(C)c(C(=O)NCC(C)C)sc2n1 [Compound 395, N-isobutyl-3,4,6-trimethyl-thieno[2,3-b] pyridine-2-carboxamide]",–,5 to 25,–
"Nc1c(C(=O)Nc2ccc3ccccc3c2)sc2nc3c(cc12)CCC3 [Compound 91, 3-Amino-6,7-dihydro-5H-cyclopenta[b]thieno[3,2-e]pyridine-2-carboxylic acid naphthalen-2-ylamide]",–,–,EC50 [3]: 5 to 25 µM

# Reference: patent US20170121344A1 (Siga Technologies, Inc., priority 2009, published 2017)
